The record followed here is PMC6984337, “Targeting the Mycobacterium tuberculosis transpeptidase LdtMt2 with cysteine-reactive inhibitors including ebselen” (Chemical Communications (Cambridge, England), 2019).

Like-named read-outs stand apart in the source and are kept apart here.

A word on the IC50: it is the concentration that inhibits the measured activity by half.

The target of assay [1] is T1, LdtMt2 (Mycobacterium tuberculosis, UniProt I6Y9J2). As to the kind of experiment: High-throughput (RapidFire) protein mass spectrometry of covalent adduct formation with LdtMt2. The conditions noted are these: for time to complete reaction (adduct formation) with LdtMt2: LdtMt2 3 µM with two equivalents (6 µM) of inhibitor, 50 mM Tris pH 7.5; for stability of covalent complex with LdtMt2: after 24 hours, RapidFire MS. The format is biochemical. The protocol:
Inhibition assays were performed in flat-bottomed 384-well μ-clear plates (Greiner Bio-One) with a final volume of 25 μL, and using 50 mM HEPES, pH 7.5 containing 0.01% (v/v) Triton X-100 as the assay buffer. LdtMt2 (100 nM) was treated with a range of inhibitor concentrations, and the mixture was incubated for 0, 10 or 60 minutes. Following this pre-incubation, fluorogenic probe 1 (25 μM)2 was added, and the mixture was incubated for a further 30 minutes. The fluorescence signal was then measured using a BMG Labtech PHERAstar FS with λex = 480 nm and λem = 520 nm using the bottom optic. All reactions were carried out in quadruplicate, and controls without inhibitor and without LdtMt2 were included. Inhibition results were normalised using the no inhibitor and no enzyme controls. Dose-response analysis was performed using Prism (GraphPad) with the log(inhibitor) vs normalized response -- variable slope model. Data points were plotted as mean average with the standard deviation as the […]
Mass spectrometric analyses were performed using an Agilent 6550 system equipped with a RapidFire sampler. Samples (100 µL) were prepared in 50 mM Tris, pH 7.5, consisting of 3 µM LdtMt2 and either 6 µM or 30 µM of the relevant inhibitor, as […]
Purified LdtMt2 Δ1-55 (approx. 1 mM; His-tag cleaved) in 50 mM Tris, pH 8.0, 100 mM NaCl was used for crystallography. Crystallisation trials were set up using the sitting drop vapour diffusion method with the JCSG+ broad screen (Molecular Dimensions). A structure of LdtMt2 Δ1-55 (PDB 6RLG) was solved using a crystal […]
Figure S3. MS analysis of the apparent covalent adducts formed with LdtMt2 and the cysteine-reactive inhibitors. […]
conditions used for mass spectrometry are described in the Experimental Details […]
(1 picture or pasted object on this page, not shown here)

Assay [2] has as its target T1, LdtMt2. As to the kind of experiment: Fluorescence-based (fluorogenic probe 1) inhibition assay for LdtMt2. The format is biochemical.
Setting [3] is: IC50 (μM, mean ± SD) 10 min, 10 min pre-incubation prior to addition of fluorogenic probe 1, LdtMt2 100 nM, probe 1 25 μM.
Where [4] appears, read: IC50 (μM, mean ± SD) 60 min, LdtMt2 100 nM, probe 1 25 μM.
Setting [5] is: without pre-incubation prior to addition of fluorogenic probe 1, LdtMt2 100 nM, probe 1 25 μM, read-out: IC50 (μM, mean ± SD) 0 min.

T1 sequence (I6Y9J2 56-408): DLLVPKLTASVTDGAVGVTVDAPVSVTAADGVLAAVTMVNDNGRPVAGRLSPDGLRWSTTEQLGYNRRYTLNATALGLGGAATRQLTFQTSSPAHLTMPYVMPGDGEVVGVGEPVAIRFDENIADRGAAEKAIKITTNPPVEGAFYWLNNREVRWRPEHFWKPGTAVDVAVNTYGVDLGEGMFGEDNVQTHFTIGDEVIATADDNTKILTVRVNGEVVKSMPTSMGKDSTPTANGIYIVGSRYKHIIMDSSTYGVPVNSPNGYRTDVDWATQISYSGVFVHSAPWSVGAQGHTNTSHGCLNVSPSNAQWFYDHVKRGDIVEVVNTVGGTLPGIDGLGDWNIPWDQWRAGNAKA

With `O=C1C=CC(=O)N1` [Compound 3, Maleimide], in assay [1], the “time to complete reaction (adduct formation) with LdtMt2” value (from here on “time to complete reaction”) is > 82 min. For the same compound, the half-maximal inhibitory concentration (IC50) in assay [2] (IC50 (μM, mean ± SD) 0 min) worked out at 158 ± 9 µM; in assay [2] (IC50 (μM, mean ± SD) 10 min) it was 48.3 ± 3.6 µM; in assay [2] (IC50 (μM, mean ± SD) 60 min), 18.6 ± 0.7 µM.
For the compound `Cl[Se]c1ccccc1` [Compound 6, PhSeCl], the IC50 turned out to be 24.6 ± 0.9 µM in assay [2] (setting [3]), 20 ± 1.2 µM in assay [2] (setting [4]) and 62.8 ± 2.2 µM in assay [2] (setting [5]).
Regarding `O=c1c2ccccc2[se]n1-c1ccccc1` [Compound 4, Ebselen], the “time to complete reaction” value in assay [1] was ≤ 1 min. Besides, the IC50 in assay [2] (setting [3]) was 0.159 ± 0.077 µM; in assay [2] (setting [4]) it was 0.143 ± 0.014 µM; in assay [2] (setting [5]) it was 0.36 ± 0.02 µM.
On to `NC(=O)CI` [Compound 2, Iodoacetamide], for which the IC50 in assay [2] (read-out: IC50 (μM, mean ± SD) 10 min, 10 min pre-incubation prior to addition of fluorogenic probe 1, LdtMt2 100 nM, probe 1 25 μM) is 32.5 ± 1.4 µM; in assay [2] (read-out: IC50 (μM, mean ± SD) 60 min, LdtMt2 100 nM, probe 1 25 μM), 10.1 ± 0.7 µM; in assay [2] (setting [5]), 129 ± 14 µM.
In the case of `O=[Se](O)c1ccccc1` [Compound 7, PhSe(O)OH], the 50% inhibitory concentration (IC50) stood at 136 ± 17 µM in assay [2] (setting [3]), 93.2 ± 9.3 µM in assay [2] (setting [4]) and 309 ± 7 µM in assay [2] (setting [5]).
With `CN(C)C(=S)SSC(=S)N(C)C` [Compound 8, Thiram], the “time to complete reaction” value in assay [1] is given as ≤ 45 min. Besides, in assay [1], the “stability of covalent complex with LdtMt2” value is given as “a small amount of unbound protein was observed”. For the same compound, the values for the half-maximal inhibitory concentration (IC50) in assay [2] (setting [3]), in assay [2] (setting [4]) and in assay [2] (setting [5]) were 2.93 ± 0.11 µM, 0.78 ± 0.029 µM and 7.01 ± 0.29 µM, respectively.
Consider `Br[Se]c1ccccc1` [Compound 5, PhSeBr], for which the IC50 worked out at 5.05 ± 0.35 µM in assay [2] (setting [3]), 2.02 ± 0.61 µM in assay [2] (setting [4]) and 11.8 ± 1.3 µM in assay [2] (setting [5]).
For the compound `C[C@@H](O)[C@H]1C(=O)N2C(C(=O)O)=C([C@H]3CCCO3)S[C@H]12` [Compound 11, Faropenem], in assay [1], the “stability of covalent complex with LdtMt2” value is “a small amount of unbound protein was observed”.
In the case of `c1ccc(SSc2ccccn2)nc1` [Compound 9, Aldrithiol], the “time to complete reaction” value in assay [1] is ≤ 10 min. The half-maximal inhibitory concentration (IC50) in assay [2] (setting [3]) turned out to be 5.35 ± 0.21 µM; in assay [2] (setting [4]), 1.61 ± 0.03 µM; in assay [2] (setting [5]), 22.1 ± 0.7 µM.
In the case of `CCC(C)SSc1ncc[nH]1` (stereo not drawn) [Compound 10, PX-12], the IC50 in assay [2] (setting [3]) stood at 9.56 ± 0.25 µM; in assay [2] (setting [4]), 2.48 ± 0.1 µM; in assay [2] (setting [5]), 27.2 ± 0.5 µM.
